Assay results reported in PMC4865847, “Putative histidine kinase inhibitors with antibacterial effect against multi-drug resistant clinical isolates identified by in vitro and in silico screens” (Scientific Reports, 2016).
Converted amounts (≈) assume the structure as drawn. Where two headings read alike, the source gives them in different places.

Columns and labels:
Gram positive strains = conditions: cited from earlier work
S. epidermidis YycG = system: S. epidermidis YycG; set-up: method as in PMID 24737057; conditions: read-out: IC50 S. epidermidis YycG (WalK) autophosphorylation; cited from earlier work
[1] = system: Gram negative E. coli DC2; set-up: method as in PMID 25531939; conditions: cited from earlier work
S. pneumoniae VicK = system: S. pneumoniae VicK; set-up: method as in PMID 25531939; conditions: cited from earlier work
[2] = system: Gram-positive B. subtilis; set-up: method as in PMID 25531939; conditions: cited from earlier work
Pseudomonas aeruginosa = test: Antibacterial susceptibility testing (MIC), P. aeruginosa; type: cell-based; conditions: Pseudomonas aeruginosa, ATCC27853; strain ATCC 27853
Description: (§1) Bacterial strains used in this study for antibacterial susceptibility testing (Table S5) were propagated using standard microbiological procedures. Minimal inhibitory concentrations (MICs) were determined following a standard double-dilution method. MICs were recorded as the lowest concentration of the compound where no visible growth was observed. After plating the dilutions around the MIC or growing them in fresh MH media, minimal bactericidal concentration (MBC) was recorded as the lowest concentration of the compound at which no colonies were formed or no growth was observed, respectively. For S. pneumoniae MICs were determined by adapting the standard double-dilution method to anaerobic conditions and of this microorganism (use of Todd Hewitt Yeast extract with 200 U/mL of catalase and continuous monitoring of growth).

E. coli PhoR (PhoR^E) = target: T1, E. coli PhoR (PhoR^E) (Escherichia coli, UniProt P08400); test: In vitro autophosphorylation kinase assay with γ-32P-ATP, PhoR^E; type: biochemical
T1 construct: The catalytic portion (DHp and CA domain) of E. coli PhoR (PhoR^E); made in house; host or cells: E. coli RIL
In short: (§2)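 Histidine kinase (0.12 mg/ml, ≈4 μM) incubated with up to 20 mM fragment in 50 mM Tris HCl pH 8.5, 50 mM KCl, 5 mM MgCl2, 0.5 mM EDTA, 0.1 mM DTT; started with 0.1 μCi/μl γ-32P-ATP (0.03–0.06 μM ATP final). Phosphoprotein quantified by SDS-PAGE and phosphor-imaging, curve-fitted; DMSO controls.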

Escherichia coli = test: Antibacterial susceptibility testing (MIC/MBC), E. coli; type: cell-based
Description: (§3) Minimal inhibitory concentrations (MICs) were determined following a standard double-dilution method. […] For S. pneumoniae MICs were determined by adapting the standard double-dilution method to anaerobic conditions and of this microorganism (use of Todd Hewitt Yeast extract with 200 U/mL of catalase and continuous monitoring of growth).

[3] = Solubility in kinase buffer; type: physicochemical; conditions: kinase buffer with 10% DMSO, pH 8.5, aqueous with cosolvent or surfactant or cyclodextrin, kinetic from dmso stock; kinase buffer in the presence of 10% DMSO; read-out: concentration above which not soluble / reduced solubility in kinase buffer
Hemolysis assay = type: cell-based; conditions: human
Description: Hemolytic activity against human erythrocytes taken from a healthy donor was measured as previously described. The hemolysis experiments were carried out in accordance with the guidelines of the United Arab Emirates University (UAEU) Research Ethics Review Board. All experimental protocols were approved by the Research Ethics Review Board of UAEU and informed consent was obtained from all donors.

Staphylococcus aureus = test: Antibacterial susceptibility testing (MIC/MBC), S. aureus; type: cell-based; conditions: Staphylococcus aureus
Description: as §3

[4] = system: Staphylococcus epidermidis; test: Antibacterial susceptibility testing (MIC/MBC), S. epidermidis; type: cell-based; conditions: Staphylococcus epidermidis
Description: as §3

Acinetobacter baumannii = test: Antibacterial susceptibility testing (MIC), A. baumannii; type: cell-based
Description: as §1

Streptococcus pneumoniae = test: Antibacterial susceptibility testing (MIC), S. pneumoniae; type: cell-based; conditions: strain 49619
Description: as §1

Klebsiella pneumoniae = test: Antibacterial susceptibility testing (MIC), K. pneumoniae; type: cell-based
Description: as §1

[5] = system: Stenotrophomonas maltophilia; test: Antibacterial susceptibility testing (MIC), S. maltophilia; type: cell-based; conditions: clinical isolate B32/1, read-out: MIC S. maltophilia B32/1
Description: as §1

Streptococcus suis = test: Antibacterial susceptibility testing (MIC), S. suis; type: cell-based; conditions: Streptococcus suis, read-out: MIC Streptococcus suis 3881/S10, strain 3881/S10
Description: as §1

S. pneumoniae WalK = target: T2, S. pneumoniae WalK (Streptococcus pneumoniae, UniProt Q8DPL8); test: In vitro autophosphorylation kinase assay with γ-32P-ATP, WalK; type: biochemical; conditions: autophosphorylation, one time point (30 sec), 10% DMSO; read-out: IC50 WalK
T2 construct: WalK (amino acids from 208 to 449); N-terminal His6-3C site of vector pOPINF (own knowledge of the vector); made in house; host or cells: E. coli RIL
In short: as §2

T1 sequence (P08400 210-425): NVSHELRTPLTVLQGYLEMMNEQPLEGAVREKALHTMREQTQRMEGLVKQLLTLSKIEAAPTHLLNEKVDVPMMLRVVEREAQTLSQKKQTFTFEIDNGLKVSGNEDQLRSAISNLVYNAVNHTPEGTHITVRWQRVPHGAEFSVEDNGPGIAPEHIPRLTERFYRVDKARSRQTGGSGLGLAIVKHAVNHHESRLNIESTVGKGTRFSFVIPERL
T2 sequence (Q8DPL8 208-449): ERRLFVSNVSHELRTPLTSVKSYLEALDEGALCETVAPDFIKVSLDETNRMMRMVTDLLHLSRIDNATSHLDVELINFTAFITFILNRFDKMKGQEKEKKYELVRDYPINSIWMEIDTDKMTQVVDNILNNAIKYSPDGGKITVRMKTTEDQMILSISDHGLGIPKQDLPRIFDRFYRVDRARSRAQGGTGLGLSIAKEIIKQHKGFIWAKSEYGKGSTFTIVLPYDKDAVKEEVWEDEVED

O=C(O)c1ccc(-c2ccc(/C=C3\S/C(=N\c4ccccc4)N(c4ccc(F)cc4)C3=O)s2)cc1 [H2-81]
MIC Gram positive (Gram positive strains): ≥ 0.75 µg/mL
IC50 (S. epidermidis YycG): 24 µM

Nc1nc2ccc(Oc3ccc4nc(N)sc4c3)cc2s1 [Compound 11]
MIC Gram negative [1]: ≥ 32 µg/mL
MICs for the Gram negative E. coli DC2 [1]: 32 to 64 µg/mL
IC50 (S. pneumoniae VicK): 75 µM
MIC Gram positive [2]: ≥ 49 µg/mL
MICs for the Gram-positive B. subtilis [2]: 49 to 64 µg/mL

Nc1nccc(Nc2ccc(Br)cc2)n1 [F1.8]
MIC (Pseudomonas aeruginosa): 500 µg/mL (≈ 1890 µM)
inhibition at 2000 µM (E. coli PhoR (PhoR^E); 2 mM, 30 sec, compared to negative control): > 50%
IC50 (E. coli PhoR (PhoR^E); autophosphorylation, one time point (30 sec), 10% DMSO, read-out: IC50 PhoR^E): ≤ 1000 µM
MIC (Escherichia coli; Escherichia coli, ATCC25276, strain ATCC 25276, read-out: MIC E. coli ATCC 25276): 125 to 250 µg/mL (≈ 471 to 943 µM)
MBC (Escherichia coli; Escherichia coli, strain CFT 073, read-out: MBC E. coli CFT 073): 500 µg/mL (≈ 1890 µM)
MIC (Escherichia coli; Escherichia coli, strain CFT 073, read-out: MIC E. coli CFT 073): < 250 µg/mL
MIC (Escherichia coli; Escherichia coli, summary over E. coli strains, read-out: antibacterial effects (MIC) against E. coli): ≥ 250 µg/mL
MIC E. coli ATCC 25276 (Escherichia coli; strain ATCC 25276): 250 µg/mL (≈ 943 µM)
MIC E. coli CFT 073 (Escherichia coli; strain CFT 073): 250 µg/mL (≈ 943 µM)
solubility [3]: ≤ 1000 µM
HC50 (Hemolysis assay): > 500 µg/mL
MIC (Staphylococcus aureus; ATCC reference strain 25293, read-out: MIC S. aureus 25293): 250 µg/mL (≈ 943 µM)
MBC (Staphylococcus aureus; DSM20231, strain DSM 20231, read-out: MBC S. aureus DSM 20231): 250 µg/mL (≈ 943 µM)
MIC (Staphylococcus aureus; MRSA clinical isolate 127/08, read-out: MIC S. aureus 127/08): 250 µg/mL (≈ 943 µM)
MIC (Staphylococcus aureus; MRSA clinical isolate 145/08, read-out: MIC S. aureus 145/08): 250 µg/mL (≈ 943 µM)
MIC (Staphylococcus aureus; MRSA clinical isolate 274/08, read-out: MIC S. aureus 274/08): 250 µg/mL (≈ 943 µM)
MIC (Staphylococcus aureus; MRSA, MRSA clinical isolate S908, read-out: MIC S. aureus S908): 250 µg/mL (≈ 943 µM)
MIC (Staphylococcus aureus; MRSA, MRSA clinical isolate T4/6, read-out: MIC S. aureus T4/6): 250 µg/mL (≈ 943 µM)
MIC (Staphylococcus aureus; MRSA, MRSA clinical isolate V4180, read-out: MIC S. aureus V4180): 250 µg/mL (≈ 943 µM)
MIC (Staphylococcus aureus; MRSA, summary over strains, read-out: MICs for the S. aureus reference strains and the MRSA strains): 125 to 250 µg/mL (≈ 471 to 943 µM)
MBC ([4]; DSM20044, strain DSM 20044): 125 µg/mL (≈ 471 µM)
MIC ([4]; clinical isolate T7/3, read-out: MIC S. epidermidis T7/3): 31 µg/mL (≈ 117 µM)
MIC ([4]; clinical isolate T37/8, read-out: MIC S. epidermidis T37/8): 500 µg/mL (≈ 1890 µM)
MIC ([4]; clinical isolate T6119, read-out: MIC S. epidermidis T6119): 250 µg/mL (≈ 943 µM)
MIC ([4]; strain RP62A (biofilm producer), read-out: MIC S. epidermidis RP62A): 500 µg/mL (≈ 1890 µM)
MIC ([4]; strain RP62A/1 (non-biofilm producer), read-out: MIC S. epidermidis RP62A/1): 250 µg/mL (≈ 943 µM)
MIC ([4]; summary over strains, read-out: MICs for the S. epidermidis strains): 31 to 500 µg/mL (≈ 117 to 1890 µM)
MIC (Acinetobacter baumannii; MDR clinical isolate NM8, read-out: MIC A. baumannii NM8): 125 µg/mL (≈ 471 µM)
MIC (Acinetobacter baumannii; MDR clinical isolate NM35, read-out: MIC A. baumannii NM35): 125 µg/mL (≈ 471 µM)
MIC (Acinetobacter baumannii; MDR clinical isolate NM75, read-out: MIC A. baumannii NM75): 250 µg/mL (≈ 943 µM)
MIC (Acinetobacter baumannii; MDR clinical isolate NM109, read-out: MIC A. baumannii NM109): 125 µg/mL (≈ 471 µM)
MIC (Acinetobacter baumannii; MDR clinical isolate NM124, read-out: MIC A. baumannii NM124): 125 µg/mL (≈ 471 µM)
MIC (Acinetobacter baumannii; summary over strains, read-out: MICs for A. baumannii strains): 125 to 250 µg/mL (≈ 471 to 943 µM)
MIC (Streptococcus pneumoniae): 128 µg/mL (≈ 483 µM)
MIC (Klebsiella pneumoniae; Klebsiella pneumoniae, ATCC700603, strain ATCC 700603): 125 to 250 µg/mL (≈ 471 to 943 µM)
MIC K. pneumoniae ATCC700603 (Klebsiella pneumoniae; strain ATCC 700603): 250 µg/mL (≈ 943 µM)
MIC [5]: > 500 µg/mL
MIC (Streptococcus suis): 250 µg/mL (≈ 943 µM)
IC50 (S. pneumoniae WalK): > 2000 µM
